Test results taken from patent EP2601963B1, “N-ISOVALEROYL-L-GLUTAMYL-L-TRYPTOPHAN AS AN AGENT INHIBITING THE FORMATION OF ULCERS IN THE STOMACH AND THE DUODENUM” (Obshestvo S Ogranichennoj Otvetstvennostju "CytoNIR", priority 2010, dated 2015).

Key:
[1] = tested on: indomethacin-induced ulcers; experiment: Indomethacin-induced ulcer model, therapeutic treatment: healing of gastric lesions; format: in vivo, male Wistar rats; design: key to GA1 (gastroprotective activity calculated for number of lesions): GA1 = PI of control group / PI of experimental group; key to GA2 (gastroprotective activity calculated for lesion size): GA2 = UI of control group / UI of experimental group; key to Ulcer Index: UI = average lesion area in group × % animals with lesions / 100; Lesion Size: unit not given here
[2] = Acute toxicity, single intramuscular dose; format: in vivo, white outbred male mice; conditions: single-dose administration, dose exceeding the recommended therapeutic dose more than 100 times
Description: Total toxicity of N-isovaleroyl-L-glutamyl-L-tryptophan was studied in accordance with the requirements of The Handbook of the Experimental (non-clinical) Studies of Novel Pharmaceutical Substances (2000): single dose acute toxicity and sub-acute and chronic toxicity during long-term administration of the dipeptide.
Acute toxicity testing was conducted on 60 white outbred male mice with 20 - 23 g body weights. The animals were divided into 6 equal groups. Single intramuscular doses of the medication were administered to the animals in the amount of 0.1 ml in the following doses: 1 mg/kg, 5 mg/kg, 10 mg/kg, and 20 mg/kg in sterile 0.9 % NaCl solution. The animals in the control group were receiving the same amounts of 0.9 % NaCl solution.

[3] = Indomethacin-induced ulcer model, therapeutic: survival; format: in vivo, male Wistar rats; conditions: Indomethacin 30 mg/kg
Description: (§1) 2 ml/kg of the ulcerogenic dose of indomethacin equal to 30 mg/kg was administered intraperitoneally. The treatment started 24 hrs. post indomethacin administration and continued for 5 days. The animals in the experimental groups received N-isovaleroyl-L-glutamyl-L-tryptophan or the comparator drug Sucralfate, and the control group received distilled water.
On the 5th day, only 7 out of 10 animals in the control group survived, while in the group receiving VGT 9 out of 10 survived.

[4] = tested on: indomethacin-induced ulcers; experiment: Indomethacin-induced ulcer model, therapeutic treatment: healing of gastric lesions; format: in vivo, male Wistar rats
Description: (§2) All studies were conducted on male Wistar rats weighing 220 ± 20 g, obtained from Rappolovo nursery (Leningrad oblast). For 14 days prior to the experiment, the animals were held in isolation. The animals were handled in accordance with the European Convention for the Protection of Vertebrate Animals used for Experimental and Other Scientific Purposes (Strasburg, 1986). The animals were held in standard plastic cages and fed a standard diet of PK120-3 (granulated feed in accordance with order # 1179 M3 USSR 10/10/1983) with a free access to water.
(§3) Animals' body weight changes were monitored throughout the experiment. The experimental animals were then sacrificed by decapitation, and their blood was collected in test tubes. The stomachs were extracted, dissected along the major curve, rinsed with cold saline solution, and the mucosa was carefully examined through a magnifying glass under bright lights. The mucosa was inspected for color, the presence of hyperemia and its intensity. The number of lesions, which were differentiated into small round (less than 1 mm), linear, and large lesions (more than 1mm) and the size of the area they covered were calculated. The average number of lesions per one animal in a group and the percentage of animals with ulcers were also calculated. Pauls Index (PI) was used as an integral indicator of the number of lesions and was calculated as follows: • PI = average number of lesions in a group x % of animals with lesions/100 [Pauls F., Wick A.M.,Mac. Key E.M. et al. An assau method for anti ulcer substances // Gastroenterology.- 1947. #8.- p.p.774 - 782]. Ulcer index UI was calculated as: UI = average lesion area size in the group x % of animals with lesions/100; gastroprotective activity GA1 was calculated as: GA1 = PI of the control group/PI of the experimental group, GA2 = UI of the control group/UI of the experimental group. The proposed drug was considered active when GA ≥ 2.
Five groups of 10 animals per group were prepared for the experiment as described in Example 1.
In each series of the experiments, the animals were divided into experimental and control groups at 10 animals per group. The proposed medication or a comparator drug were orally administered to the animals in the experimental group, and the control animals were given distilled water in the same amount. • control group received distilled water per os; • experimental group 1 received 0.1 mkg/kg isovaleroyl glutamyl tryptophan; • experimental group 2 received 10 mkg/kg isovaleroyl glutamyl tryptophan; • experimental group 3 received 200 mkg/kg of the comparator drug Sucralfate.
as §1

[5] = tested on: stress-induced gastric ulcers; experiment: Water-immersion stress model: gastric lesions, preventive treatment; format: in vivo, male Wistar rats; conditions: 200 mg/kg + stress
Description: as §2
In each series, the animals were divided into experimental and control groups with 10 rats per group. The animals in the experimental groups were orally administered the claimed preparation or a comparator drug, and the control group animals received distilled water in the same amount.
The experimental animals were divided into 5 groups, 10 animals each. The animals received the following therapy: • control group received distilled water per os; • experimental group 1 received 0.1 mkg/kg N-isovaleroyl-L-glutamyl-L-tryptophan; • experimental group 2 received 10 mkg/kg N-isovaleroyl-L-glutamyl-L-tryptophan; […]; • experimental group 4 received 50 mkg/kg of the comparator drug Misoprostol;
The experiment was conducted as follows: • The proposed drug, comparator drugs, and distilled water were administered once daily over 7 days, and on the day of the ulcerogenic stress induction one hour prior to the stress.
The rats deprived of food for 18 hrs. were placed into special cases and immersed in water vertically to the level of their xyphoids. The animals were held in this position for 5 hrs. at 23° C water temperature. After that, the animals were removed from the experiment.
as §3

[6] = Indomethacin 30 mg/kg + 1 mkg/kg, treatment 5 days
[7] = Indomethacin 30 mg/kg + 200 mg/kg, treatment 5 days

## N-isovaleroyl-L-glutamyl-L-tryptophan [VGT preparation]
[1]; 0.1 mkg/kg, treatment after Indomethacin
  Pauls index lower than that of the control animals: 2 times
[1]; [6]
  # Lesions: 4.1 ± 0.8
  % Animals with Ulcers: 100%
  GA1 (gastroprotective activity calculated for number of lesions): 2.0
  GA2 (gastroprotective activity calculated for lesion size): 2.6
  Lesion Size: 12.3 ± 3.5
  PI: 4.1
  Ulcer Index: 12.3
[1]; Indomethacin 30 mg/kg + 10 mkg/kg, treatment 5 days
  GA2 (gastroprotective activity calculated for lesion size): 1.4
[2]
  toxic reactions: did not cause any toxic reactions
[3]; 0.1 mkg/kg
  animals survived: 9 out of 10
[3]; on the 5th day, control 7 out of 10
  animals survived: 9 out of 10

## aluminum complex of beta-D-fructofuranosyl-alpha-D-glucopyranoside octakis (hydrosulfate) [Sucralfate]
[4]; [7]
  # Lesions: 3.3 ± 1.0
  % Animals with Ulcers: 85.7%
  GA1 (gastroprotective activity calculated for number of lesions): 3.0
  GA2 (gastroprotective activity calculated for lesion size): 3.3
  Lesion Size: 11.5 ± 4.26
  PI: 2.8
  Ulcer Index: 9.86
[4]; treatment after Indomethacin
  animals found to have lesions: 85.7%
[5]
  # Lesions: 8.8 ± 1.4
  % Animals with Ulcers: 90%
  GA1 (gastroprotective activity calculated for number of lesions): 2.79
  GA2 (gastroprotective activity calculated for lesion size): 2.99
  Large round Amt.: 3.9 ± 0.8
  Large round Size: 2.4 ± 0.6
  Lesion Size: 7.5 ± 1.5
  Linear Amt.: 2.5 ± 0.6
  Linear Size: 4.5 ± 1.0
  Pauls Index: 7.92
  Small round Amt.: 2.4 ± 0.7
  Small round Size: 0.7 ± 0.2
  Total Amt.: 8.8 ± 1.4
  Total Size: 7.5 ± 1.5
  Ulcer Index: 6.75
